The results in this text go back to ChEMBL document CHEMBL1157659, “Design, synthesis, and biological evaluation of 3-[4-(2-hydroxyethyl)piperazin-1-yl]-7-(6-methoxypyridin-3-yl)-1-(2-propoxyethyl)pyrido[3,4-b]pyrazin-2(1H)-one, a potent, orally active, brain penetrant inhibitor of phosphodiesterase 5 (PDE5)” (J Med Chem, 2010).

The species named for data set [1] is Homo sapiens. Nature of the data set: Selectivity ratio of IC50 for human recombinant PDE11 to IC50 for human platelet PDE5.
The species named for data set [2] is Homo sapiens. The data set can be described thus: Selectivity ratio of IC50 for human retina PDE6 to IC50 for human platelet PDE5.
The nature of data set [3]: Aqueous solubility at pH 7.4. Type of data set: physicochemical.
The target of data set [4] is Voltage-gated inwardly rectifying potassium channel KCNH2 (Homo sapiens, UniProt Q12809). Nature of the data set: Inhibition of human ERG by patch-clamp method.
Data set [5] is described as follows: Clearance in Sprague-Dawley rat at 1 mg/kg, iv. It is filed as ADME, organism-based. On the set-up: dose 1 mg/kg, route intravenous. Conditions: in vivo.
Data set [6] in a line: Metabolic stability in rat microsomes assessed as compound remaining after 30 mins. Type of data set: ADME, Microsome. Conditions: read-out: Stability.
Data set [7] in a line: Metabolic stability in human microsomes assessed as compound remaining after 30 mins. Type of data set: ADME, Microsome. Conditions: read-out: Stability.
Data set [8] in a line: Plasma protein binding in rat. It is filed as ADME, cell-free. Conditions: read-out: PPB (converted).
Data set [9] in a line: Fraction unbound in rat plasma. Type of data set: ADME, cell-free.
Data set [10] is filed under the species Homo sapiens. The data set can be described thus: Plasma protein binding in human. Conditions: read-out: PPB (converted).
For data set [11], the species on record is Homo sapiens. The data set can be described thus: Fraction unbound in human plasma.
In data set [12] the test system is Plasma. Nature of the data set: Plasma protein binding in human. Type of data set: ADME, cell-free.
The subject of data set [13] is Plasma. Nature of the data set: Fraction unbound in human plasma. It is filed as ADME, cell-free.
For data set [14], the target named is cGMP-specific 3',5'-cyclic phosphodiesterase (Homo sapiens, UniProt O76074). Nature of the data set: Inhibition of human platelet PDE5 assessed as reduction in conversion of [3H]cGMP to [3H]GMP after 2 hr by scintillation proximity assay.
Data set [15] relates to Rattus norvegicus. Nature of the data set: Antihypertensive activity in iv dosed anesthetized SHR rat assessed as reduction of systemic arterial blood pressure at free plasma concentration of 2.3 nM. It is filed as functional, organism-based. Conditions: Artery.
Data set [16] can be described thus: Oral bioavailability in Sprague-Dawley rat at 1 mg/kg. It is filed as ADME, organism-based. Conditions: in vivo.
Data set [17] is described as follows: Clearance in dog. It is filed as ADME, organism-based, Canis lupus familiaris. Conditions: in vivo.
A short description of data set [18]: Bioavailability in dog. It is filed as ADME, organism-based, Canis lupus familiaris. Conditions: in vivo.
Data set [19] can be described thus: Metabolic stability in cannulated Sprague-Dawley rat bile duct assessed as compound remaining after 6 hrs. Conditions: read-out: Stability. Type of data set: ADME.
Data set [20] can be described thus: Renal clearance in Sprague-Dawley rat as % compound recovered. It is filed as ADME, organism-based, Kidney. Conditions: urine, read-out: Recovered in urine.
Data set [21] can be described thus: Renal clearance in dog as % compound recovered. Type of data set: ADME, organism-based, Canis lupus familiaris, Kidney. Conditions: urine, read-out: Recovered in urine.
Data set [22] is described as follows: Ratio of drug level in brain to blood in Sprague-Dawley rat at 10 mg/kg, sc administered as single dose measured after 2 hrs. Type of data set: ADME, organism-based. Also on record: dose 10 mg/kg, route subcutaneous. Conditions: read-out: BBR.
The target of data set [23] is Dual specificity calcium/calmodulin-dependent 3',5'-cyclic nucleotide phosphodiesterase 1A (Homo sapiens, UniProt P54750). Nature of the data set: Inhibition of PDE1A.
Data set [24] addresses Dual specificity calcium/calmodulin-dependent 3',5'-cyclic nucleotide phosphodiesterase 1B (Homo sapiens, UniProt Q01064). The data set can be described thus: Inhibition of PDE1B.
Data set [25] has as its target Dual specificity calcium/calmodulin-dependent 3',5'-cyclic nucleotide phosphodiesterase 1C (Homo sapiens, UniProt Q14123). Nature of the data set: Inhibition of PDE1C.
The nature of data set [26]: Inhibition of PDE2.
Data set [27] deals with cGMP-inhibited 3',5'-cyclic phosphodiesterase 3A (Homo sapiens, UniProt Q14432). Nature of the data set: Inhibition of PDE3A.
Data set [28] has as its target cGMP-inhibited 3',5'-cyclic phosphodiesterase 3B (Homo sapiens, UniProt Q13370). The data set can be described thus: Inhibition of PDE3B.
In data set [29] the target is 3',5'-cyclic-AMP phosphodiesterase 4A (Homo sapiens, UniProt P27815). Nature of the data set: Inhibition of PDE4A.
In data set [30] the target is 3',5'-cyclic-AMP phosphodiesterase 4B (Homo sapiens, UniProt Q07343). Nature of the data set: Inhibition of PDE4B.
The target in data set [31] is 3',5'-cyclic-AMP phosphodiesterase 4C (Homo sapiens, UniProt Q08493). The data set can be described thus: Inhibition of PDE4C.
The target of data set [32] is 3',5'-cyclic-AMP phosphodiesterase 4D (Homo sapiens, UniProt Q08499). Nature of the data set: Inhibition of PDE4D.
Data set [33] in a line: Inhibition of PDE7.
Data set [34] addresses 3',5'-cyclic-AMP phosphodiesterase 7B (Homo sapiens, UniProt Q9NP56). The data set can be described thus: Inhibition of PDE7B.
Data set [35] addresses High affinity cAMP-specific and IBMX-insensitive 3',5'-cyclic phosphodiesterase 8A (Homo sapiens, UniProt O60658). Nature of the data set: Inhibition of PDE8A.
Data set [36] addresses High affinity cAMP-specific and IBMX-insensitive 3',5'-cyclic phosphodiesterase 8B (Homo sapiens, UniProt O95263). The data set can be described thus: Inhibition of PDE8B.
Data set [37] in a line: Inhibition of PDE9.
In data set [38] the test system is Rattus norvegicus. Nature of the data set: Antihypertensive activity in anesthetized SHR rat assessed as reduction of systolic blood pressure at 2 mg/kg, po after 24 hrs relative to control. It is filed as functional, Artery.
Data set [39] relates to Rattus norvegicus. The data set can be described thus: Antihypertensive activity in iv dosed anesthetized SHR rat assessed as reduction of systemic arterial blood pressure administered as three successive escalating doses measured during 30 to 50 mins portion of each 1 hr steady state infusion. It is filed as functional, organism-based. Conditions: Artery.
The nature of data set [40]: Ratio of free drug level in iv dosed SHR rat plasma administered as three successive escalating doses to IC50 for human platelet PDE5. Conditions: in vivo. Type of data set: ADME, organism-based.
Data set [41] deals with Rattus norvegicus. The data set can be described thus: Toxicity in iv dosed SHR rat administered as three successive escalating doses. Type of data set: organism-based. Conditions: in vivo.
The test system of data set [42] is Rattus norvegicus. The data set can be described thus: Free plasma concentration in iv dosed anesthetized SHR rat administered as three successive escalating doses. Type of data set: ADME, organism-based. Conditions: in vivo.
Data set [43] in a line: Tmax in healthy human. It is filed as ADME, organism-based. Conditions: in vivo.
Data set [44] can be described thus: Elimination half life in healthy human. Conditions: in vivo, read-out: beta t1/2 (converted). Type of data set: ADME, organism-based.

Calls of active or inactive are those of the source. The calls are words filed in the database; no cut-off is given here.

Chain of Voltage-gated inwardly rectifying potassium channel KCNH2 (Q12809 whole entry): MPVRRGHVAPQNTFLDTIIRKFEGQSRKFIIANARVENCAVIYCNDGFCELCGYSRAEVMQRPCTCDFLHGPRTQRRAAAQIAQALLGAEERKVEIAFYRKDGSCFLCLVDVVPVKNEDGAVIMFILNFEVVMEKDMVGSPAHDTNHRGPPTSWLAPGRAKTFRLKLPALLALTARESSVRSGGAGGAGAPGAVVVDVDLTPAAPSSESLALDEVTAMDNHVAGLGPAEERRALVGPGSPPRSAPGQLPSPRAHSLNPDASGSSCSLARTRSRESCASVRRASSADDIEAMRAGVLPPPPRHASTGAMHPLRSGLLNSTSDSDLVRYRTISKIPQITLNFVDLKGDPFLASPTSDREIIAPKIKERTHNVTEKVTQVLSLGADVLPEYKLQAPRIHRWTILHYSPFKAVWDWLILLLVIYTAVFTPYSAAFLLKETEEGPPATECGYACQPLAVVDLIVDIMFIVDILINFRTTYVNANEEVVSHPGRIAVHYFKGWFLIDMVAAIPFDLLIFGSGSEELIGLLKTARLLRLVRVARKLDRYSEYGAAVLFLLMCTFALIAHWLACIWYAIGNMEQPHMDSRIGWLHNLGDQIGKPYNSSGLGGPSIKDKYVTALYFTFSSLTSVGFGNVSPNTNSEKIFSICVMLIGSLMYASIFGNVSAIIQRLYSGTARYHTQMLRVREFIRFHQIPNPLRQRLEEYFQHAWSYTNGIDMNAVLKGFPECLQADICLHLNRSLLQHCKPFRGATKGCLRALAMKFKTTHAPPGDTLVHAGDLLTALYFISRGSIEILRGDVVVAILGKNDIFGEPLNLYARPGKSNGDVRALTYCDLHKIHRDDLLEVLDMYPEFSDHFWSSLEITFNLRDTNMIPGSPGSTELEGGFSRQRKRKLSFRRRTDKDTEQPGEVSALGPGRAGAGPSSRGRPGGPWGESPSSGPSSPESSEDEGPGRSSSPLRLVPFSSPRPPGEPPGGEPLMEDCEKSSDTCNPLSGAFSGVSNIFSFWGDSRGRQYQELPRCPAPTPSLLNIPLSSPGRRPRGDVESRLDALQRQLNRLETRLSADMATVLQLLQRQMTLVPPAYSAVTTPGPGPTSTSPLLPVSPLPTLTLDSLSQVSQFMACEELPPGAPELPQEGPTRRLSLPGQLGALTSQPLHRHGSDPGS
Chain of High affinity cAMP-specific and IBMX-insensitive 3',5'-cyclic phosphodiesterase 8B (O95263 whole entry): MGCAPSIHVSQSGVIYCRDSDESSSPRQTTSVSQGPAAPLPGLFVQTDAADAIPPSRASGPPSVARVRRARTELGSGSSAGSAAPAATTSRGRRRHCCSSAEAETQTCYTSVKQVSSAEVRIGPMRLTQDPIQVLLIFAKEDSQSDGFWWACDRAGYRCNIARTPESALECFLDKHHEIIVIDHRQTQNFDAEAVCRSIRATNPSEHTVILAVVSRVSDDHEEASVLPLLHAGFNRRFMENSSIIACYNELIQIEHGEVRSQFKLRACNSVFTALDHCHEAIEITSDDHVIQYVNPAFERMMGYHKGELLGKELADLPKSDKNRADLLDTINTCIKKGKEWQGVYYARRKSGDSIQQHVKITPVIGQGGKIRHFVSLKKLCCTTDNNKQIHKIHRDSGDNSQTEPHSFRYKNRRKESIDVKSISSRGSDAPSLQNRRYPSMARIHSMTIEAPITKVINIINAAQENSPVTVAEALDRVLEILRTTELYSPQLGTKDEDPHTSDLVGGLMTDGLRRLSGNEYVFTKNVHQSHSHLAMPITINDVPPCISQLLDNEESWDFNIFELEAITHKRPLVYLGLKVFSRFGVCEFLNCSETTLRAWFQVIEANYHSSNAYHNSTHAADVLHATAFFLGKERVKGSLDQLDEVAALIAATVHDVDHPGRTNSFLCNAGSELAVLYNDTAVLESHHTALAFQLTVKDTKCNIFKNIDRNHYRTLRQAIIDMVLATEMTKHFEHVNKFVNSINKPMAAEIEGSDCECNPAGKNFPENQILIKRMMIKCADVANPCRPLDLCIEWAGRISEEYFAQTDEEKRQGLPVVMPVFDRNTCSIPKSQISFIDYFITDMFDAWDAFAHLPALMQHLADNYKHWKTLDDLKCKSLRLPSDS
Chain of High affinity cAMP-specific and IBMX-insensitive 3',5'-cyclic phosphodiesterase 8A (O60658 whole entry): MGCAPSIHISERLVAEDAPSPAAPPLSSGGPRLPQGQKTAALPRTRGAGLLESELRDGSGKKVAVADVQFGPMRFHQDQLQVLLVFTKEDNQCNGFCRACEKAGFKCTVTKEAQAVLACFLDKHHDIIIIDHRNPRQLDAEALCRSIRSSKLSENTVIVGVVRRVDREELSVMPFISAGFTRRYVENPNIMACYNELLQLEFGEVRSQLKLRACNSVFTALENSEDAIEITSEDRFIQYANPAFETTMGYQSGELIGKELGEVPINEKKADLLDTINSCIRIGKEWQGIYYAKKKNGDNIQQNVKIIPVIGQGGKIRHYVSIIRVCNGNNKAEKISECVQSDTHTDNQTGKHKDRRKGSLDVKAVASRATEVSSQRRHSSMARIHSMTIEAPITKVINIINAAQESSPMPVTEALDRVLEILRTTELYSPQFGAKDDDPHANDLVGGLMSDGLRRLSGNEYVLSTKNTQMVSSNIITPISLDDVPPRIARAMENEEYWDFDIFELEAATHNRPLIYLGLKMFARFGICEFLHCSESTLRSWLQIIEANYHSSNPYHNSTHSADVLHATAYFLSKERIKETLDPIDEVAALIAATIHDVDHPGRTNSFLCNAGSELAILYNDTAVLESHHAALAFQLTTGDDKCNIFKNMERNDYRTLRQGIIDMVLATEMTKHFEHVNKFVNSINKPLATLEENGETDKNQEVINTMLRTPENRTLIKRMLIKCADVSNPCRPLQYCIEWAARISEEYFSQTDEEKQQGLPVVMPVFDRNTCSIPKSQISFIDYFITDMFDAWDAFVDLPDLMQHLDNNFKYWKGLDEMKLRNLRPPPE
Chain of 3',5'-cyclic-AMP phosphodiesterase 4C (Q08493 whole entry): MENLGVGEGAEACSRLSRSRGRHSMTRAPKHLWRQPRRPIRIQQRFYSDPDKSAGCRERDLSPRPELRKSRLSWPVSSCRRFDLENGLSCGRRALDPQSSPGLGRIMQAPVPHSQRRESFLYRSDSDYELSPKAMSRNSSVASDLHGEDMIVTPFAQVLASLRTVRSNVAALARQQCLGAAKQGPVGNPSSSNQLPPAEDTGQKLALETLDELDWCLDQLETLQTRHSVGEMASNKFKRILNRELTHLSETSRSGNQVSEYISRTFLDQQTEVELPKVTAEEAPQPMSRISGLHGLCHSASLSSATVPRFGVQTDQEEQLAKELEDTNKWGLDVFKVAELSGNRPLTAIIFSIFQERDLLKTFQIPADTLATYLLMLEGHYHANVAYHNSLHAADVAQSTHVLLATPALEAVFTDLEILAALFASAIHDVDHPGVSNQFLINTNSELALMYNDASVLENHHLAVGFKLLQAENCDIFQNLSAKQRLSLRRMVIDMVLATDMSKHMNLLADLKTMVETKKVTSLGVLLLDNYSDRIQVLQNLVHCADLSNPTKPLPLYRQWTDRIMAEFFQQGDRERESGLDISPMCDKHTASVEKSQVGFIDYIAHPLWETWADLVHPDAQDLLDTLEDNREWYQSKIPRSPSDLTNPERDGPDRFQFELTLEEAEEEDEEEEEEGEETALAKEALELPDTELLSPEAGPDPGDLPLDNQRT
Chain of Dual specificity calcium/calmodulin-dependent 3',5'-cyclic nucleotide phosphodiesterase 1B (Q01064 whole entry): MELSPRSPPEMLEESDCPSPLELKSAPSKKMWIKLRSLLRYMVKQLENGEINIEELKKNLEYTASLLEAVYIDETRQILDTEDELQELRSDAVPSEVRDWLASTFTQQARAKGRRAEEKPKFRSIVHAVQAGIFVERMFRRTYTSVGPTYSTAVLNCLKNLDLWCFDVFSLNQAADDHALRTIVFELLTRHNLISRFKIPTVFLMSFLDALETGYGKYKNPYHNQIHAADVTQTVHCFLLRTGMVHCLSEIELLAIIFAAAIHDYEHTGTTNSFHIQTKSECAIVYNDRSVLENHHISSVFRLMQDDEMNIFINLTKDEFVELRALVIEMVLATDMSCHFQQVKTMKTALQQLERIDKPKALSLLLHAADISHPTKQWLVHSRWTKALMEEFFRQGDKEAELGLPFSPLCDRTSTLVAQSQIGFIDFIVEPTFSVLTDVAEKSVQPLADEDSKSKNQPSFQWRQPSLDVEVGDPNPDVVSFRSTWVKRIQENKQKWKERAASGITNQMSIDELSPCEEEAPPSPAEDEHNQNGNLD
Chain of Dual specificity calcium/calmodulin-dependent 3',5'-cyclic nucleotide phosphodiesterase 1C (Q14123 whole entry): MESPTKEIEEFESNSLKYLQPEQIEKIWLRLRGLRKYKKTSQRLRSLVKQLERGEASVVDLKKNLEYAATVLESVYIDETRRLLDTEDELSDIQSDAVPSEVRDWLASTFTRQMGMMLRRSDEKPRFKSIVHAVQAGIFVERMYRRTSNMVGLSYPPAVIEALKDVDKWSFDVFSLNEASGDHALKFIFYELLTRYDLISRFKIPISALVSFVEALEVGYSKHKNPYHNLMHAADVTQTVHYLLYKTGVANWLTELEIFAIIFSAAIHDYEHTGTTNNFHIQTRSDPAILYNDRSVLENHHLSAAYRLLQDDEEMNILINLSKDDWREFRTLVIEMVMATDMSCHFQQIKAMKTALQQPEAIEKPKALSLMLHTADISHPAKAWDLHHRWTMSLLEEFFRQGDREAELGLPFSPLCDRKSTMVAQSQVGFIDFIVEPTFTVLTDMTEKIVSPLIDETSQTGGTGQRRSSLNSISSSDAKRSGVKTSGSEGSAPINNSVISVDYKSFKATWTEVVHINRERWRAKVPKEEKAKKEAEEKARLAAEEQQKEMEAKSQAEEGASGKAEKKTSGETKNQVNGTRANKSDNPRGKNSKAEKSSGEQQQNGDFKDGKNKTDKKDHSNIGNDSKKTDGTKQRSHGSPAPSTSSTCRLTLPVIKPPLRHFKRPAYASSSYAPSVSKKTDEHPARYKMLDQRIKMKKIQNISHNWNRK

As for `CCCOCCn1c(=O)c(NCCNCCO)nc2cnc(-c3ccc(OC)nc3)cc21`, the Ratio IC50 in the data set filed under Homo sapiens [1] was more than 1780; in the data set filed under Homo sapiens [2] it was 242. Besides, in [3], the solubility is more than 100 µM. This compound yielded an IC50 in [4] of 4500 nM. Further, the clearance in [5] was 582 mL/min/kg. The remaining at 0.5 h in [6] is 100%; in [7] it was 95%. The fraction unbound in [8] was 0.226; in data set [9] it was 0.18; in the data set filed under Homo sapiens [10] it was 0.212; in the data set listed under Homo sapiens [11], 0.18.

With `CCCOCCn1c(=O)c(NCCN)nc2cnc(-c3ccc(OC)nc3)cc21`, the Ratio IC50 in the data set listed under Homo sapiens [1] was more than 8000; in the data set listed under Homo sapiens [2] it was 4840. The compound further displayed a solubility in [3] of more than 100 µM. The compound also yielded a clearance in data set [5] of 170 mL/min/kg. Moreover, the figures for the remaining at 0.5 h in data set [6] and in data set [7] were 98% and 97%, respectively. Further, the results for the fraction unbound in [8] and in data set [9] were 0.166 and 0.18, respectively. This compound yielded a PPB in the data set on Plasma [12] of 69.4%. In addition, the Fu in the data set with Plasma [13] came to 18%.

As to `CCCOCCn1c(=O)c(N2CCN(C[C@H](C)O)CC2)nc2cnc(-c3ccc(OC)nc3)cc21`, in data set [14], the IC50 amounted to 0.31 nM. In addition, the Ratio IC50 in the data set listed under Homo sapiens [1] was found to be 1400; in the data set filed under Homo sapiens [2] it was 49.

As to `CCCOCCn1c(=O)c(N2CCN(C[C@@H](C)O)CC2)nc2cnc(-c3ccc(OC)nc3)cc21`, the IC50 in [14] stood at 0.23 nM; in data set [4], 230 nM. Also, the Ratio IC50 amounted to 2380 in the data set filed under Homo sapiens [1] and 134 in the data set listed under Homo sapiens [2].

In the case of `CCCOCCn1c(=O)c(N2CCN(CC)CC2)nc2cnc(-c3ccc(OC)nc3)cc21`, the IC50 in [14] came out at 0.22 nM.

Regarding `CCCOCCn1c(=O)c(N2CCN(CCCO)CC2)nc2cnc(-c3ccc(OC)nc3)cc21`, the IC50 in data set [14] came out at 0.18 nM. For the same compound, the Ratio IC50 in the data set filed under Homo sapiens [1] came out at 4260; in the data set filed under Homo sapiens [2], 62.

`CCCOCCn1c(=O)c(N2CCNCC2)nc2cnc(-c3ccc(OC)nc3)cc21` yielded an IC50 in data set [4] of 670 nM. Also, in [5], the clearance amounted to 42 mL/min/kg. In addition, the remaining at 0.5 h in data set [6] and in [7] was 86% in each case. For the same compound, the fraction unbound in data set [8] is 0.158.

Regarding `CCCOCCn1c(=O)c(N2CCCN(CCCO)CC2)nc2cnc(-c3ccc(OC)nc3)cc21`, the Ratio IC50 is more than 1860 in the data set filed under Homo sapiens [1] and 94 in the data set filed under Homo sapiens [2].

Turning to `CCCOCCn1c(=O)c(N2CCCN(CCO)CC2)nc2cnc(-c3ccc(OC)nc3)cc21`, the Ratio IC50 in the data set listed under Homo sapiens [1] is more than 2780; in the data set filed under Homo sapiens [2] it was 70.

As for `CCCOCCn1c(=O)c(N2CCN(CC(C)(C)O)CC2)nc2cnc(-c3ccc(OC)nc3)cc21`, the Ratio IC50 in the data set listed under Homo sapiens [1] came to 1370; in the data set filed under Homo sapiens [2], 64.

For `CCCOCCn1c(=O)c(N2C[C@H]3C[C@@H]2CN3)nc2cnc(-c3ccc(OC)nc3)cc21`, the values for the Ratio IC50 in the data set filed under Homo sapiens [1] and in the data set filed under Homo sapiens [2] were 456 and 93, respectively.

In the case of `CCCOCCn1c(=O)c(N2CCN([C@@H](C)[C@@H](C)O)CC2)nc2cnc(-c3ccc(OC)nc3)cc21` (racemic), the Ratio IC50 in the data set listed under Homo sapiens [1] stood at 1740; in the data set listed under Homo sapiens [2], 134. Moreover, the IC50 in data set [4] came to 54 nM.

`CCCOCCn1c(=O)c(N2CCN([C@H](C)[C@@H](C)O)CC2)nc2cnc(-c3ccc(OC)nc3)cc21` (racemic): in data set [14], the IC50 is 0.3 nM. Moreover, the results for the Ratio IC50 in the data set filed under Homo sapiens [1] and in the data set listed under Homo sapiens [2] were 2090 and 68, respectively.

`CCCOCCn1c(=O)c(N2CCN(CCO)CC2)nc2cnc(-c3ccc(OC)nc3)cc21` [PF-03049423]: the result in the data set on Rattus norvegicus [15] and in the data set with Rattus norvegicus [39] was Active. Also, the IC50 in [14] is 0.2 nM; in data set [4] it was 1790 nM; in data set [23], more than 2000 nM; in [24], more than 2000 nM; in [25], more than 2000 nM; in [26], more than 2000 nM. Moreover, the IC50 in data set [27], in [28], in data set [29], in [30], in data set [31] and in data set [32] was more than 2000 nM in each case. Also, the IC50 in [33], in data set [34], in [35], in data set [36] and in data set [37] was more than 2000 nM throughout. The Ratio IC50 in the data set listed under Homo sapiens [1] was found to be 2460; in the data set listed under Homo sapiens [2], 158. Also, the values for the clearance in [5] and in [17] were 37 mL/min/kg and 5.8 mL/min/kg, respectively. The remaining at 0.5 h was 89% in data set [6] and 85% in data set [7]. Also, the fraction unbound is 0.171 in data set [8] and 0.18 in data set [9]. Also, the PPB in the data set with Plasma [12] is given as 67.8%. In addition, the bioavailability in data set [16] came out at 69%; in [18], 92%. The compound further came in with a Fu with Plasma [13] of 18%. In data set [19], the remaining at 6 h is 2%. Further, the dose excreted in [20] and in data set [21] was less than 2% in each case. Also, in data set [22], the Kp at 2 h is 4. In addition, the Activity in the data set with Rattus norvegicus [38] was 25 mmHg; in the data set on Rattus norvegicus [41], “Non-toxic”. In data set [40], the Ratio turned out to be 11. The “Cp(f)” value with Rattus norvegicus [42] is recorded as 2.3 nM. In addition, the Tmax in data set [43] turned out to be 1 h. Also, the half-life in data set [44] was 1020 min.
